Values quoted from earlier work, collected in patent publication US20240117436A1, “METHODS OF TREATING LIPEDEMA INCLUDING AKR1C2 AS A THERAPEUTIC TARGET” (MAGI EUREGIO SCS, priority 2021, published 2024).

biological target: AKR enzymes; settings: mid-nanomolar value; read-out: affinity of cofactor in binding AKR enzymes

Q: With NADP(H) [NADP(H) (NPD)] as the compound, how does the Kd read?
A: 100 nM

test system: PGE2 and PGF2α levels; settings: literature

Q: With Sennosides as the compound, how does the “Activity (prostaglandin levels)” value read?
A: increase PGE2 formation

biological target: T1, AKR1C1 (Homo sapiens, UniProt Q04828); settings: not given
T1 sequence (Q04828 1-323): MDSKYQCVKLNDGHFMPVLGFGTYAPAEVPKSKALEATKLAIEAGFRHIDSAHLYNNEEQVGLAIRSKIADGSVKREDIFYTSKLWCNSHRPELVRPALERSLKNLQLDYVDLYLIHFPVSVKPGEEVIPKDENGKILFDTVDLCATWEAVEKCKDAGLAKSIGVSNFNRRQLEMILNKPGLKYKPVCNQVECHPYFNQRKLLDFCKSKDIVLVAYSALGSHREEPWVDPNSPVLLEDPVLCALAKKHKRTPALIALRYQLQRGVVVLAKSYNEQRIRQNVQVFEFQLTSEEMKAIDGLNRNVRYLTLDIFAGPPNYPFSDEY

Q: Which “Enzyme activity (inhibition/activation)” value does the source give for `O=C1CN=C(c2ccccn2)c2cc(Br)ccc2N1` [Bromazepam] here?
A: inhibition

Q: For `O=C1CN2CCOC2(c2ccccc2Cl)c2cc(Cl)ccc2N1` (centres unmarked) [Cloxazolam], which “Enzyme activity (inhibition/activation)” value is on record?
A: inhibition

Q: For `CN1C(=O)CN=C(c2ccccc2F)c2cc([N+](=O)[O-])ccc21` [Flunitrazepam], which “Enzyme activity (inhibition/activation)” value is on record?
A: inhibition

Q: Which “Enzyme activity (inhibition/activation)” value does the source give for `CN1C(=O)CN=C(c2ccccc2)c2cc(Cl)ccc21` [Diazepam] here?
A: inhibition

Q: For `O=C1CN=C(c2ccccc2)c2cc([N+](=O)[O-])ccc2N1` [Nitrazepam], which “Enzyme activity (inhibition/activation)” value is on record?
A: inhibition

same assay, conditions: AKR1C1, known from the literature

Q: With `O=C1C[C@@H](c2ccc(O)cc2)Oc2cc(O)cc(O)c21` [Naringenin] as the compound, how does the “Enzyme activity (inhibition/activation)” value read?
A: inhibition

Q: For `CC(C)(C)c1cc(O)ccc1O` [T-Butylhydroquinone], which “Enzyme activity (inhibition/activation)” value is on record?
A: activation

Q: Which “Enzyme activity (inhibition/activation)” value does the source give for `CC(=O)O[C@]1(C(C)=O)CC[C@H]2[C@@H]3C[C@H](C)C4=CC(=O)CC[C@]4(C)[C@H]3CC[C@@]21C` [Medroxyprogesterone Acetate] here?
A: inhibition

Q: For `CC/C=C\CC1C(=O)CCC1CC(=O)OC` (centres unmarked) [Methyl Jasmonate], which “Enzyme activity (inhibition/activation)” value is on record?
A: inhibition

Q: With `O=c1ccc2ccccc2o1` [Coumarin] as the compound, how does the “Enzyme activity (inhibition/activation)” value read?
A: inhibition

Q: For `O=c1oc2cc(O)ccc2c2oc3cc(O)ccc3c12` [Coumestrol], which “Enzyme activity (inhibition/activation)” value is on record?
A: inhibition

Q: Which “Enzyme activity (inhibition/activation)” value does the source give for `OO` [Hydrogen peroxide] here?
A: activation

Q: For `O=c1cc(-c2ccc(O)c(O)c2)oc2cc(O)cc(O)c12` [Luteolin], which “Enzyme activity (inhibition/activation)” value is on record?
A: inhibition

Q: For `O=C1C[C@@H](c2ccc(O[C@@H]3O[C@H](CO)[C@@H](O)[C@H](O)[C@H]3O)cc2)Oc2cc(O)ccc21` [Liquiritin], which “Enzyme activity (inhibition/activation)” value is on record?
A: inhibition

Q: With `O=c1c(-c2ccc(O)cc2)coc2cc(O)ccc12` [Daidzein] as the compound, how does the “Enzyme activity (inhibition/activation)” value read?
A: inhibition

Q: With `COc1ccc(-c2coc3cc(O)cc(O)c3c2=O)cc1` [Biochanin A] as the compound, how does the “Enzyme activity (inhibition/activation)” value read?
A: inhibition

Q: For `O=C(O)c1cc(I)cc(I)c1O` [3,5-Diiodosalicylic Acid], which “Enzyme activity (inhibition/activation)” value is on record?
A: inhibition

Q: Which “Enzyme activity (inhibition/activation)” value does the source give for `O=c1c(O)c(-c2ccc(O)cc2)oc2cc(O)cc(O)c12` [Kaempferol] here?
A: inhibition

Q: With `O=C(O)c1cccc(Oc2ccccc2)c1` [3-Phenoxybenzoic Acid] as the compound, how does the “Enzyme activity (inhibition/activation)” value read?
A: inhibition

Q: Which “Enzyme activity (inhibition/activation)” value does the source give for `O=c1c(O)c(-c2ccccc2)oc2cc(O)ccc12` [3,7-Dihydroxyflavone] here?
A: inhibition

Q: For `COC1=C(OC)C(=O)c2ccccc2C1=O` [2,3-Dimethoxynaphthalene-1,4-Dione, 2,3-dimethoxynaphthalene-1,4-dione], which “Enzyme activity (inhibition/activation)” value is on record?
A: activation

Q: With `Cc1cc(CC(=O)O)n(C)c1C(=O)c1ccc(Cl)cc1` [Zomepirac] as the compound, how does the “Enzyme activity (inhibition/activation)” value read?
A: inhibition

Q: Which “Enzyme activity (inhibition/activation)” value does the source give for `CC/C(=C(\c1ccccc1)c1ccc(OCCN(C)C)cc1)c1ccccc1` [Tamoxifen] here?
A: inhibition

Q: Which “Enzyme activity (inhibition/activation)” value does the source give for `C[C@H](O)[C@H]1CC[C@H]2[C@@H]3C=CC4=CC(=O)CC[C@@]4(C)[C@@H]3CC[C@]12C` [20α-Hydroxydydrogesterone] here?
A: inhibition

Q: With `COc1ccc2c(c1)c(CC(=O)O)c(C)n2C(=O)c1ccc(Cl)cc1` [Indomethacin] as the compound, how does the “Enzyme activity (inhibition/activation)” value read?
A: inhibition

Q: For `CC(=O)Oc1ccccc1C(=O)O` [Acetylsalicylic Acid], which “Enzyme activity (inhibition/activation)” value is on record?
A: inhibition

Q: For `CC1(C)[C@@H](O)CC[C@]2(C)[C@H]3C(=O)C=C4[C@@H]5C[C@@](C)(C(=O)O)CC[C@]5(C)CC[C@@]4(C)[C@]3(C)CC[C@@H]12` [Glycyrrhetinic Acid], which “Enzyme activity (inhibition/activation)” value is on record?
A: inhibition

Q: For `C#C[C@]1(O)CC[C@H]2[C@@H]3CCC4=CC(=O)CC[C@@H]4[C@H]3CC[C@@]21C` [Norethindrone], which “Enzyme activity (inhibition/activation)” value is on record?
A: inhibition

Q: For `Clc1ccc2c(c1)C(c1ccccc1)=NCc1nncn1-2` [Estazolam], which “Enzyme activity (inhibition/activation)” value is on record?
A: inhibition

Q: Which “Enzyme activity (inhibition/activation)” value does the source give for `CN1CCN=C(c2ccccc2)c2cc(Cl)ccc21` [Medazepam] here?
A: inhibition

Q: With `CC(C)C1=CC2=CC[C@@H]3[C@](C)(CCC[C@@]3(C)C(=O)O)[C@H]2CC1` [Abietic Acid] as the compound, how does the “Enzyme activity (inhibition/activation)” value read?
A: inhibition

Q: For `CC(=O)[C@H]1CC[C@H]2[C@@H]3C=CC4=CC(=O)CC[C@@]4(C)[C@@H]3CC[C@]12C` [Dydrogesterone], which “Enzyme activity (inhibition/activation)” value is on record?
A: inhibition

Q: Which “Enzyme activity (inhibition/activation)” value does the source give for `COc1ccc2cc([C@H](C)C(=O)O)ccc2c1` [Naproxen] here?
A: inhibition

Q: With `O=c1cc(-c2ccccc2)oc2cc(O)ccc12` [7-Hydroxyflavone] as the compound, how does the “Enzyme activity (inhibition/activation)” value read?
A: inhibition

Q: With `CC1CN2CC(=O)Nc3ccc(Cl)cc3C2(c2ccccc2)O1` (centres unmarked) [Oxazolam] as the compound, how does the “Enzyme activity (inhibition/activation)” value read?
A: inhibition

Q: With `O=C(O)Cc1ccccc1Nc1c(Cl)cccc1Cl` [Diclofenac] as the compound, how does the “Enzyme activity (inhibition/activation)” value read?
A: inhibition

Q: For `O=C1CCCC1` [Cyclopentanone], which “Enzyme activity (inhibition/activation)” value is on record?
A: inhibition

Q: For `C[C@H]1CCCC(=O)CCC/C=C/c2cc(O)cc(O)c2C(=O)O1` [Zearalenone], which “Enzyme activity (inhibition/activation)” value is on record?
A: inhibition

Q: Which “Enzyme activity (inhibition/activation)” value does the source give for `Oc1ccc(C=Cc2cc(O)cc(O)c2)cc1` [Resveratrol] here?
A: inhibition

Q: Which “Enzyme activity (inhibition/activation)” value does the source give for `C=C(CC)C(=O)c1ccc(OCC(=O)O)c(Cl)c1Cl` [Ethacrynic Acid] here?
A: activation

Q: For `CC/C(=C(/CC)c1ccc(O)cc1)c1ccc(O)cc1` [Diethylstilbestrol], which “Enzyme activity (inhibition/activation)” value is on record?
A: inhibition

Q: With `O=c1c(O)c(-c2ccccc2)oc2ccccc12` [3-Hydroxyflavone] as the compound, how does the “Enzyme activity (inhibition/activation)” value read?
A: inhibition

Q: For `CC(C(=O)O)c1cccc(C(=O)c2ccccc2)c1` (centres unmarked) [Ketoprofen], which “Enzyme activity (inhibition/activation)” value is on record?
A: inhibition

Q: Which “Enzyme activity (inhibition/activation)” value does the source give for `O=c1c(O)c(-c2ccc(O)c(O)c2)oc2cc(O)cc(O)c12` [Quercetin] here?
A: inhibition

Q: With `CC(=O)Nc1ccc(O)cc1` [Paracetamol] as the compound, how does the “Enzyme activity (inhibition/activation)” value read?
A: inhibition

Q: With `CC1=C(CC(=O)O)c2cc(F)ccc2/C1=C\c1ccc([S+](C)[O-])cc1` (centres unmarked) [Sulindac] as the compound, how does the “Enzyme activity (inhibition/activation)” value read?
A: inhibition

Q: For `COc1c(O)cc(O)c2c(=O)cc(-c3ccccc3)oc12` [Wagonin], which “Enzyme activity (inhibition/activation)” value is on record?
A: inhibition

Q: With `O=c1cc(-c2ccccc2)oc2ccccc12` [Flavone] as the compound, how does the “Enzyme activity (inhibition/activation)” value read?
A: inhibition

Q: With `CCc1cccc2c3c([nH]c12)C(CC)(CC(=O)O)OCC3` (centres unmarked) [Etodolac] as the compound, how does the “Enzyme activity (inhibition/activation)” value read?
A: inhibition

Q: With `COc1cccc2oc(-c3ccccc3)cc(=O)c12` [5-Methoxyflavone] as the compound, how does the “Enzyme activity (inhibition/activation)” value read?
A: inhibition

Q: With `C[C@]12CC[C@H]3C(=CCc4cc(O)ccc43)[C@@H]1CCC2=O` [Equilin] as the compound, how does the “Enzyme activity (inhibition/activation)” value read?
A: inhibition

Q: With `O=c1cc(-c2ccccc2)oc2cccc(O)c12` [5-Hydroxyflavone] as the compound, how does the “Enzyme activity (inhibition/activation)” value read?
A: inhibition

Q: For `O=c1cc(-c2ccccc2)oc2cc(O)cc(O)c12` [Chrysin, 5,7-Dihydroxyflavone], which “Enzyme activity (inhibition/activation)” value is on record?
A: inhibition

Q: Which “Enzyme activity (inhibition/activation)” value does the source give for `O=c1cc(-c2ccc(O)cc2)oc2cc(O)cc(O)c12` [Apigenin] here?
A: inhibition

Q: With `Cc1ccc(Cl)c(Nc2ccccc2C(=O)O)c1Cl` [Meclofenamic Acid] as the compound, how does the “Enzyme activity (inhibition/activation)” value read?
A: inhibition

Q: For `O=C1CC(c2ccccc2)Oc2ccccc21` (centres unmarked) [Flavanone], which “Enzyme activity (inhibition/activation)” value is on record?
A: inhibition

Q: Which “Enzyme activity (inhibition/activation)” value does the source give for `O=c1c(-c2ccc(O)cc2)coc2cc(O)cc(O)c12` [Genistein] here?
A: inhibition

Q: For `CC(C)Cc1ccc(C(C)C(=O)O)cc1` (centres unmarked) [Ibuprofen], which “Enzyme activity (inhibition/activation)” value is on record?
A: inhibition

same assay, conditions: literature statements in the text

Q: For `O=C1C[C@@H](c2ccc(O[C@@H]3O[C@H](CO)[C@@H](O)[C@H](O)[C@H]3O)cc2)Oc2cc(O)ccc21` [Liquiritin], which “kind of AKR1C1 inhibition” value is on record?
A: selective and potent AKR1C1 inhibitor

Q: With `CN1CCN=C(c2ccccc2)c2cc(Cl)ccc21` [Medazepam] as the compound, how does the “kind of AKR1C1 inhibition” value read?
A: non-competitive inhibitors
